Biological target: T1, PPARγ (Homo sapiens, UniProt P37231)
T1 construct: gene PPARG; recombinant His-tagged PPARγ (pET10), wild type
T1 sequence (P37231 1-505): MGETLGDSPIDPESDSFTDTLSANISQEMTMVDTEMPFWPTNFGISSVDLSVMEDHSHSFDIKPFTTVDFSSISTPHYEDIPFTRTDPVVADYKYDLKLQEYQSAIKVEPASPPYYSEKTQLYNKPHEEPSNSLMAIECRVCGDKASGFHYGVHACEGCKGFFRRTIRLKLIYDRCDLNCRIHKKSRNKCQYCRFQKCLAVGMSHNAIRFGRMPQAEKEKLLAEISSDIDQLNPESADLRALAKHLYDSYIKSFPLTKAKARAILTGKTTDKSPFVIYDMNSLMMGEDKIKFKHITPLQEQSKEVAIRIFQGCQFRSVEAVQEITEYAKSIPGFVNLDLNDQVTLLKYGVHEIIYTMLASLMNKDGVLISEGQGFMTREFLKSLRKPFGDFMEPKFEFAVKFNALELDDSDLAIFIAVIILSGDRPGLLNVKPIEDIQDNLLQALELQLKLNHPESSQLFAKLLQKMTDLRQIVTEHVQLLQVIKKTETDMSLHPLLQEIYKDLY
Test: biolayer interferometry (Octet RED […]), Ni-NTA immobilised His-tagged protein
Assay type: binding

Compound `Cc1nc(C)c(C)nc1C` [Ligustrazine] has a Kd of 39.4 µM.
